Data reported in ChEMBL document CHEMBL3217477, “Synthesis and biological evaluation of substituted - and -2,3-dihydrofuran naphthoquinones as potent anticandidal agents” (Medchemcomm, 2010).
≈ marks a conversion by molar mass, not a printed value.

Columns and labels:
Kluyveromyces marxianus [1] = test: Antifungal activity against Candida kefyr assessed as growth inhibition after 24 hrs by microbroth dilution method; type: functional
Candida dubliniensis [2] = test: Antifungal activity against Candida dubliniensis assessed as growth inhibition at 250 ug/mL after 24 hrs by hole plate diffusion method; type: functional; conditions: read-out: IZ
Candida dubliniensis [3] = test: Antifungal activity against Candida dubliniensis assessed as growth inhibition after 24 hrs by microbroth dilution method; type: functional
Candida albicans [4] = test: Antifungal activity against Candida albicans assessed as growth inhibition after 24 hrs by microbroth dilution method; type: functional
Candida albicans [5] = test: Antifungal activity against Candida albicans assessed as growth inhibition at 250 ug/mL after 24 hrs by hole plate diffusion method; type: functional; conditions: read-out: IZ
[6] = Hemolytic activity in Swiss mouse erythrocytes at 50 ug/mL after 1 hr by spectrophotometric analysis relative to control; type: ADME, cell-based, Erythrocyte; conditions: read-out: Activity
Candida albicans [7] = test: Antifungal activity against Candida albicans ATCC 90028 assessed as growth inhibition after 24 hrs by microbroth dilution method; type: functional; conditions: ATCC 90028, 24 h
Candida tropicalis [8] = test: Antifungal activity against Candida tropicalis assessed as growth inhibition after 24 hrs by microbroth dilution method; type: functional
Pichia kudriavzevii [9] = test: Antifungal activity against Candida krusei assessed as growth inhibition at 250 ug/mL after 24 hrs by hole plate diffusion method; type: functional; conditions: read-out: IZ
Kluyveromyces marxianus [10] = test: Antifungal activity against Candida kefyr assessed as growth inhibition at 250 ug/mL after 24 hrs by hole plate diffusion method; type: functional; conditions: read-out: IZ
Candida tropicalis [11] = test: Antifungal activity against Candida tropicalis assessed as growth inhibition at 250 ug/mL after 24 hrs by hole plate diffusion method; type: functional; conditions: read-out: IZ
[12] = Cytotoxicity against mouse NIH/3T3 cells assessed as dead cells at 12.5 ug/mL after 72 hrs by Alamar Blue assay relative to control; type: cell-based; conditions: nih3t3, 72 h
Pichia kudriavzevii [13] = test: Antifungal activity against Candida krusei assessed as growth inhibition after 24 hrs by microbroth dilution method; type: functional
Candida parapsilosis [14] = test: Antifungal activity against Candida parapsilosis assessed as growth inhibition after 24 hrs by microbroth dilution method; type: functional; conditions: Lodderomyces parapsilosis
Candida parapsilosis [15] = test: Antifungal activity against Candida parapsilosis assessed as growth inhibition at 250 ug/mL after 24 hrs by hole plate diffusion method; type: functional; conditions: Lodderomyces parapsilosis, read-out: IZ

Question: Which MIC (Kluyveromyces marxianus [1]) does the source give for O=C1C(=O)c2ccccc2C2=C1CC(c1ccccc1)O2 (stereo not given) here?
Answer: The MIC was 5.65 µM (≈ 1.56 µg/mL).

Question: And the zone of inhibition at 250 µg/mL (Candida dubliniensis [2])?
Answer: The zone of inhibition at 250 µg/mL was 11.9 mm.

Question: What about the MIC (Candida dubliniensis [3]) of the same compound?
Answer: Its MIC is 5.65 µM (≈ 1.56 µg/mL).

Question: And the MIC (Candida albicans [4])?
Answer: Its MIC is 45.2 µM (≈ 12.5 µg/mL).

Question: What about the zone of inhibition at 250 µg/mL (Candida albicans [5]) of the same compound?
Answer: Its zone of inhibition at 250 µg/mL is 7.37 mm.

Question: And the hemolysis at 1 h, 50 ug/mL [6]?
Answer: Its hemolysis at 1 h, 50 ug/mL is 1.98%.

Question: And the MIC (Candida albicans [7])?
Answer: Its MIC is 90.5 µM (≈ 25 µg/mL).

Question: And the MIC (Candida tropicalis [8])?
Answer: Its MIC is 11.3 µM (≈ 3.12 µg/mL).

Question: And the zone of inhibition at 250 µg/mL (Pichia kudriavzevii [9])?
Answer: Its zone of inhibition at 250 µg/mL is 12 mm.

Question: And the zone of inhibition at 250 µg/mL (Kluyveromyces marxianus [10])?
Answer: The zone of inhibition at 250 µg/mL was 10.8 mm.

Question: What about the zone of inhibition at 250 µg/mL (Candida tropicalis [11]) of the same compound?
Answer: The zone of inhibition at 250 µg/mL was 5.7 mm.

Question: What about the mortality [12] of the same compound?
Answer: Its mortality is 0%.

Question: And the MIC (Pichia kudriavzevii [13])?
Answer: The MIC was 2.82 µM (≈ 0.779 µg/mL).

Question: What about the MIC (Candida parapsilosis [14]) of the same compound?
Answer: The MIC was 22.6 µM (≈ 6.25 µg/mL).

Question: What about the zone of inhibition at 250 µg/mL (Candida parapsilosis [15]) of the same compound?
Answer: The zone of inhibition at 250 µg/mL was 7.22 mm.

Question: Which results are given for Cc1ccc(C2CC3=C(O2)c2ccccc2C(=O)C3=O)c(C)c1 (stereo not given)?
Answer: MIC (Kluyveromyces marxianus [1]): 41.1 µM (≈ 12.5 µg/mL); zone of inhibition at 250 µg/mL (Candida dubliniensis [2]): 4.19 mm; MIC (Candida dubliniensis [3]): 41.1 µM (≈ 12.5 µg/mL); MIC (Candida albicans [4]): 82.1 µM (≈ 25 µg/mL); zone of inhibition at 250 µg/mL (Candida albicans [5]): 2.93 mm; hemolysis at 1 h, 50 ug/mL [6]: 4.37%; MIC (Candida albicans [7]): 82.1 µM (≈ 25 µg/mL); MIC (Candida tropicalis [8]): 41.1 µM (≈ 12.5 µg/mL); zone of inhibition at 250 µg/mL (Pichia kudriavzevii [9]): 10.8 mm; zone of inhibition at 250 µg/mL (Kluyveromyces marxianus [10]): 9.28 mm; zone of inhibition at 250 µg/mL (Candida tropicalis [11]): 7.51 mm; mortality [12]: 17%; MIC (Pichia kudriavzevii [13]): 5.13 µM (≈ 1.56 µg/mL); MIC (Candida parapsilosis [14]): 10.3 µM (≈ 3.12 µg/mL); zone of inhibition at 250 µg/mL (Candida parapsilosis [15]): 9 mm

Question: With O=C1C2=C(OC(c3ccc(Cl)cc3)C2)C(=O)c2ccccc21 (stereo not given) as the compound, how does the MIC (Kluyveromyces marxianus [1]) read?
Answer: The MIC was 80.5 µM (≈ 25 µg/mL).

Question: What about the zone of inhibition at 250 µg/mL (Candida dubliniensis [2]) of the same compound?
Answer: Its zone of inhibition at 250 µg/mL is 0 mm.

Question: And the MIC (Candida dubliniensis [3])?
Answer: Its MIC is 40.2 µM (≈ 12.5 µg/mL).

Question: And the MIC (Candida albicans [4])?
Answer: The MIC was 10.1 µM (≈ 3.12 µg/mL).

Question: What about the zone of inhibition at 250 µg/mL (Candida albicans [5]) of the same compound?
Answer: The zone of inhibition at 250 µg/mL was 1.5 mm.

Question: And the hemolysis at 1 h, 50 ug/mL [6]?
Answer: The hemolysis at 1 h, 50 ug/mL was 1.16%.

Question: What about the MIC (Candida albicans [7]) of the same compound?
Answer: Its MIC is 80.5 µM (≈ 25 µg/mL).

Question: What about the MIC (Candida tropicalis [8]) of the same compound?
Answer: The MIC was 40.2 µM (≈ 12.5 µg/mL).

Question: And the zone of inhibition at 250 µg/mL (Pichia kudriavzevii [9])?
Answer: Its zone of inhibition at 250 µg/mL is 6.14 mm.

Question: What about the zone of inhibition at 250 µg/mL (Kluyveromyces marxianus [10]) of the same compound?
Answer: The zone of inhibition at 250 µg/mL was 5.27 mm.

Question: And the zone of inhibition at 250 µg/mL (Candida tropicalis [11])?
Answer: The zone of inhibition at 250 µg/mL was 2.49 mm.

Question: What about the mortality [12] of the same compound?
Answer: Its mortality is 0%.

Question: What about the MIC (Pichia kudriavzevii [13]) of the same compound?
Answer: The MIC was 80.5 µM (≈ 25 µg/mL).

Question: What about the MIC (Candida parapsilosis [14]) of the same compound?
Answer: The MIC was 40.2 µM (≈ 12.5 µg/mL).

Question: What about the zone of inhibition at 250 µg/mL (Candida parapsilosis [15]) of the same compound?
Answer: The zone of inhibition at 250 µg/mL was 0 mm.

Question: Which results are given for O=C1C(=O)c2ccccc2C2=C1CC1(C=CC=C1)O2?
Answer: MIC (Kluyveromyces marxianus [1]): 26.2 µM (≈ 6.56 µg/mL); zone of inhibition at 250 µg/mL (Candida dubliniensis [2]): 18.5 mm; MIC (Candida dubliniensis [3]): 6.55 µM (≈ 1.64 µg/mL); MIC (Candida albicans [4]): 6.55 µM (≈ 1.64 µg/mL); zone of inhibition at 250 µg/mL (Candida albicans [5]): 5.85 mm; hemolysis at 1 h, 50 ug/mL [6]: -1.63%; MIC (Candida albicans [7]): 13.1 µM (≈ 3.28 µg/mL); MIC (Candida tropicalis [8]): 3.27 µM (≈ 0.818 µg/mL); zone of inhibition at 250 µg/mL (Pichia kudriavzevii [9]): 8.8 mm; zone of inhibition at 250 µg/mL (Kluyveromyces marxianus [10]): 10.7 mm; zone of inhibition at 250 µg/mL (Candida tropicalis [11]): 7.19 mm; mortality [12]: 8%; MIC (Pichia kudriavzevii [13]): 13.1 µM (≈ 3.28 µg/mL); MIC (Candida parapsilosis [14]): 13.1 µM (≈ 3.28 µg/mL); zone of inhibition at 250 µg/mL (Candida parapsilosis [15]): 6.14 mm

Question: Which MIC (Kluyveromyces marxianus [1]) does the source give for O=C1C2=C(OC3(C=CC=C3)C2)C(=O)c2ccccc21 here?
Answer: Its MIC is 52.5 µM (≈ 13.1 µg/mL).

Question: What about the zone of inhibition at 250 µg/mL (Candida dubliniensis [2]) of the same compound?
Answer: The zone of inhibition at 250 µg/mL was 16.6 mm.

Question: And the MIC (Candida dubliniensis [3])?
Answer: Its MIC is 3.27 µM (≈ 0.818 µg/mL).

Question: And the MIC (Candida albicans [4])?
Answer: The MIC was 2.09 µM (≈ 0.523 µg/mL).

Question: What about the zone of inhibition at 250 µg/mL (Candida albicans [5]) of the same compound?
Answer: The zone of inhibition at 250 µg/mL was 16.6 mm.

Question: What about the hemolysis at 1 h, 50 ug/mL [6] of the same compound?
Answer: The hemolysis at 1 h, 50 ug/mL was 5.92%.

Question: What about the MIC (Candida albicans [7]) of the same compound?
Answer: The MIC was 13.1 µM (≈ 3.28 µg/mL).

Question: What about the MIC (Candida tropicalis [8]) of the same compound?
Answer: Its MIC is 3.27 µM (≈ 0.818 µg/mL).

Question: What about the zone of inhibition at 250 µg/mL (Pichia kudriavzevii [9]) of the same compound?
Answer: The zone of inhibition at 250 µg/mL was 10.8 mm.

Question: What about the zone of inhibition at 250 µg/mL (Kluyveromyces marxianus [10]) of the same compound?
Answer: The zone of inhibition at 250 µg/mL was 9.3 mm.

Question: And the zone of inhibition at 250 µg/mL (Candida tropicalis [11])?
Answer: The zone of inhibition at 250 µg/mL was 7.8 mm.

Question: And the mortality [12]?
Answer: Its mortality is 9%.

Question: And the MIC (Pichia kudriavzevii [13])?
Answer: The MIC was 12.8 µM (≈ 3.22 µg/mL).

Question: What about the MIC (Candida parapsilosis [14]) of the same compound?
Answer: The MIC was 13.1 µM (≈ 3.28 µg/mL).

Question: What about the zone of inhibition at 250 µg/mL (Candida parapsilosis [15]) of the same compound?
Answer: Its zone of inhibition at 250 µg/mL is 0 mm.

Question: For Cc1ccc(C2CC3=C(O2)C(=O)c2ccccc2C3=O)cc1 (stereo not given), which MIC (Kluyveromyces marxianus [1]) is on record?
Answer: The MIC was 86.2 µM (≈ 25 µg/mL).

Question: What about the zone of inhibition at 250 µg/mL (Candida dubliniensis [2]) of the same compound?
Answer: The zone of inhibition at 250 µg/mL was 2.75 mm.

Question: And the MIC (Candida dubliniensis [3])?
Answer: Its MIC is 43.1 µM (≈ 12.5 µg/mL).

Question: And the MIC (Candida albicans [4])?
Answer: The MIC was 43.1 µM (≈ 12.5 µg/mL).

Question: What about the zone of inhibition at 250 µg/mL (Candida albicans [5]) of the same compound?
Answer: The zone of inhibition at 250 µg/mL was 10.4 mm.

Question: And the hemolysis at 1 h, 50 ug/mL [6]?
Answer: The hemolysis at 1 h, 50 ug/mL was -0.786%.

Question: And the MIC (Candida albicans [7])?
Answer: Its MIC is 86.2 µM (≈ 25 µg/mL).

Question: And the MIC (Candida tropicalis [8])?
Answer: Its MIC is 43.1 µM (≈ 12.5 µg/mL).

Question: And the zone of inhibition at 250 µg/mL (Pichia kudriavzevii [9])?
Answer: Its zone of inhibition at 250 µg/mL is 4.94 mm.

Question: And the zone of inhibition at 250 µg/mL (Kluyveromyces marxianus [10])?
Answer: Its zone of inhibition at 250 µg/mL is 4.27 mm.

Question: And the zone of inhibition at 250 µg/mL (Candida tropicalis [11])?
Answer: The zone of inhibition at 250 µg/mL was 7.28 mm.

Question: And the mortality [12]?
Answer: The mortality was 0%.

Question: What about the MIC (Pichia kudriavzevii [13]) of the same compound?
Answer: Its MIC is 86.2 µM (≈ 25 µg/mL).

Question: And the MIC (Candida parapsilosis [14])?
Answer: Its MIC is 43.1 µM (≈ 12.5 µg/mL).

Question: And the zone of inhibition at 250 µg/mL (Candida parapsilosis [15])?
Answer: Its zone of inhibition at 250 µg/mL is 0 mm.
